Reference: patent US20150291593A1, “NOVEL HETEROARYL AND HETEROCYCLE COMPOUNDS, COMPOSITIONS AND METHODS” (HUTCHISON MEDIPHARMA LIMITED, priority 2012, published 2015)

How the values were obtained:
p110δ/p85α = target: T1, p110δ/p85α (Homo sapiens, UniProt O00329); assay: Transcreener KINASE Assay, kinase inhibition of p110δ/p85α; format: biochemical; conditions: for IC50: read-out: PI3Kδ IC50
T1 construct: purchased Invitrogen
Summary of the method: (§1)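 Recombinant human PI3K heterodimers (p110/p85α) incubated with compound (2% DMSO final) in HEPES/NaCl/EGTA/CHAPS/MgCl2/DTT buffer with 30 uM PIP2 and 10 uM ATP (as added) for 80 min at room temperature.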

p110α/p85α = target: T2, p110α/p85α (Homo sapiens, UniProt P42336); assay: Transcreener KINASE Assay, kinase inhibition of p110α/p85α; format: biochemical; conditions: @ 1 uM
T2 construct: purchased Invitrogen
T2 sequence (P42336 whole entry, species assumed): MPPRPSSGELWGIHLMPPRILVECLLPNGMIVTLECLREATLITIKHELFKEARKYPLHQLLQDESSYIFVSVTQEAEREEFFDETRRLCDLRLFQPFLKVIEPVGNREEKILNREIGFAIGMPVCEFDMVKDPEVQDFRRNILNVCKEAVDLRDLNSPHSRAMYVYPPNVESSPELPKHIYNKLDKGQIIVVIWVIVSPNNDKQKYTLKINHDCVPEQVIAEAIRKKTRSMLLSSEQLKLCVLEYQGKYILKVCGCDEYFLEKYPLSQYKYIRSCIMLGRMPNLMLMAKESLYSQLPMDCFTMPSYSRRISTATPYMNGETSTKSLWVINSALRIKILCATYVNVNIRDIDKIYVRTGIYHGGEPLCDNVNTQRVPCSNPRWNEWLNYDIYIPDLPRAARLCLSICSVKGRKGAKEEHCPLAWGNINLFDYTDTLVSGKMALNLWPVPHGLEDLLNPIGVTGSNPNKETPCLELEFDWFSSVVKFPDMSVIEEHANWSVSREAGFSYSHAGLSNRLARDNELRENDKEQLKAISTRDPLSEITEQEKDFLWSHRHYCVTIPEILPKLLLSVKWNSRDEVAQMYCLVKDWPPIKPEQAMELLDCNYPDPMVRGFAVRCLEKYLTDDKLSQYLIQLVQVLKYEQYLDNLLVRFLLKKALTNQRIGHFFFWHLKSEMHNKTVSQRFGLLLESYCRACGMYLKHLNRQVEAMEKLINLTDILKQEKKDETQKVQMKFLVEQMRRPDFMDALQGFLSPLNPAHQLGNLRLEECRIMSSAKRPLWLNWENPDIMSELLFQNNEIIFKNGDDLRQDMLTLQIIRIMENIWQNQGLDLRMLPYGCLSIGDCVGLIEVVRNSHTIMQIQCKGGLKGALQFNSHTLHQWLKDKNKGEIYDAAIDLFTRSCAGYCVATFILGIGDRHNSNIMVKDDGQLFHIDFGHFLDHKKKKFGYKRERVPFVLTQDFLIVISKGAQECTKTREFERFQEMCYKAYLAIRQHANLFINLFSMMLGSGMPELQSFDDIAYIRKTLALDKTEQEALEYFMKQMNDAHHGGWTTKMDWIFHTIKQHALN
T2 sequence (P27986 whole entry partner, species assumed): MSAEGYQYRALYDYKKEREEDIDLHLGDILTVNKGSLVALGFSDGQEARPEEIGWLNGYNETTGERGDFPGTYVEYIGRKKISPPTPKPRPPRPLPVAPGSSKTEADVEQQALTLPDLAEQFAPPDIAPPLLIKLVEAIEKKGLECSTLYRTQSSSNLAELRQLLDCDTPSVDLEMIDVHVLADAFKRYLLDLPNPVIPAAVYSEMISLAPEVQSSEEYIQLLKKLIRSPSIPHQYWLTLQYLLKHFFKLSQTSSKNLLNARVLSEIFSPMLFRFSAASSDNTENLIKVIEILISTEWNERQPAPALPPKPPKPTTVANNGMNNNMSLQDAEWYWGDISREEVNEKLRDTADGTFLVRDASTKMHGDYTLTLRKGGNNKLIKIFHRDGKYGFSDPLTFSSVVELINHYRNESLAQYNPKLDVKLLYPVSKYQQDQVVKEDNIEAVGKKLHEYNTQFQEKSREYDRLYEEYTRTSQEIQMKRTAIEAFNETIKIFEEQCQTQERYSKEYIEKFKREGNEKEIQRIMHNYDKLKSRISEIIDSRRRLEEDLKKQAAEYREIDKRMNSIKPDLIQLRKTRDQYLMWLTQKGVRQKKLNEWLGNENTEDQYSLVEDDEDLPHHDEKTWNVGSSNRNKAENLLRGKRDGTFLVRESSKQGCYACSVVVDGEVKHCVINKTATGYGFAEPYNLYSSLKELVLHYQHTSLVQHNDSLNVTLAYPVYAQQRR
Experimental: PI3K kinases including p110α/p85α, p110δ/p85α and p110γ are purchased from Invitrogen, and p110β/p85α is from Millipore.
Primary screening data and IC50 values are measured using Transcreener™ KINASE Assay (Bellbrook, Catalog #3003-10K). […] It is a universal, homogenous, high throughput screening (HTS) technology using a far-red, competitive fluorescence polarization immunoassay based on the detection of ADP to monitor the activity of enzymes that catalyze group transfer reactions. Briefly, the Transcreener KINASE Assay is designed as a simple two-part, endpoint assay.
In the first step, the 25 ul kinase reaction is performed by preparing a reaction mixture containing 5 ul test compound (2% DMSO final concentration), 10 ul kinase, buffer (50 mM HEPES, 100 mM NaCl, 1 mM EGTA, 0.03% CHAPS, 3 mM MgCl2, and freshly supplemented 1 mM DTT), and 10 ul 30 uM PIP2/10 uM ATP. The plate is sealed and incubated for 80 min at room temperature. Next, 25 ul ADP detection mix is added per well. The plate is sealed again and incubated for 60 min at room temperature, and then measure fluorescence polarization by Tecan Infinite F500 Reader.
Data is analyzed and IC50s are generated using the add-in software for Microsoft Excel, Xlfit™ (version 2.0). IH %=(ADP amount under 2% DMSO-ADP amount under test compound)/ADP amount under 2% DMSO.

p110γ = target: T3, p110γ (Homo sapiens, UniProt P48736); assay: Transcreener KINASE Assay, kinase inhibition of p110γ; format: biochemical; conditions: for IC50: read-out: PI3Kγ IC50
T3 construct: purchased Invitrogen
T3 sequence (P48736 whole entry, species assumed): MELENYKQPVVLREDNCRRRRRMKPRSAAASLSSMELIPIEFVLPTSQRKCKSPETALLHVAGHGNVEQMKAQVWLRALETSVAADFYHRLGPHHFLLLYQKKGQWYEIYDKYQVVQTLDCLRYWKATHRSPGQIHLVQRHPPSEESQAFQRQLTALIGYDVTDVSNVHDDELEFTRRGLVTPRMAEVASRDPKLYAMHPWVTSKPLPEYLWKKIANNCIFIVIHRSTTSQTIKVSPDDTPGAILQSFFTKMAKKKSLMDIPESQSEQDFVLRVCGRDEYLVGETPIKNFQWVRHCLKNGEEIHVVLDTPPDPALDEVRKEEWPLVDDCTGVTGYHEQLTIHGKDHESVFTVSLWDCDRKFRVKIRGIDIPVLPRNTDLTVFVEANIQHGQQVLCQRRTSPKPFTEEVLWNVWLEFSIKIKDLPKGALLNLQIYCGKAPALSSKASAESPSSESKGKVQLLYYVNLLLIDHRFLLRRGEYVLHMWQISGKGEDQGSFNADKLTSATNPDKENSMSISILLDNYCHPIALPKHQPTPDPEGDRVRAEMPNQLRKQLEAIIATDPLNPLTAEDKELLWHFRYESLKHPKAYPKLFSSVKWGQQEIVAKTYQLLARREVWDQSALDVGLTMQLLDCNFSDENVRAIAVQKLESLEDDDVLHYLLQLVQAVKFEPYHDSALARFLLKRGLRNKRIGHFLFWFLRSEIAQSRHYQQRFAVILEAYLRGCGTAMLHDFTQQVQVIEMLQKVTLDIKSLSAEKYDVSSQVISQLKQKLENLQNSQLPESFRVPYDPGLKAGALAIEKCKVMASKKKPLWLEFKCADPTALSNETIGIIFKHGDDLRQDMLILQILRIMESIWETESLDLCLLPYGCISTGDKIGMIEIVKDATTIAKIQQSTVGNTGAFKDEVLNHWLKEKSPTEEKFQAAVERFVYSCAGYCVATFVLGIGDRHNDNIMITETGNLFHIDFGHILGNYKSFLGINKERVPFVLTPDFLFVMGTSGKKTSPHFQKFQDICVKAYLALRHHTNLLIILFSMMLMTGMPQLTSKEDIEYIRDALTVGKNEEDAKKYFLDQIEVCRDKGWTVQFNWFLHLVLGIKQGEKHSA
Summary of the method: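 Recombinant human PI3K complexes (p110α/p85α, p110β/p85α, p110δ/p85α, p110γ) assayed by ADP detection via competitive far-red fluorescence polarization immunoassay.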

p110β/p85α = target: T4, p110β/p85α (Homo sapiens, UniProt P42338); assay: Transcreener KINASE Assay, kinase inhibition of p110β/p85α; format: biochemical
T4 construct: purchased Millipore
T4 sequence (P42338 whole entry, species assumed): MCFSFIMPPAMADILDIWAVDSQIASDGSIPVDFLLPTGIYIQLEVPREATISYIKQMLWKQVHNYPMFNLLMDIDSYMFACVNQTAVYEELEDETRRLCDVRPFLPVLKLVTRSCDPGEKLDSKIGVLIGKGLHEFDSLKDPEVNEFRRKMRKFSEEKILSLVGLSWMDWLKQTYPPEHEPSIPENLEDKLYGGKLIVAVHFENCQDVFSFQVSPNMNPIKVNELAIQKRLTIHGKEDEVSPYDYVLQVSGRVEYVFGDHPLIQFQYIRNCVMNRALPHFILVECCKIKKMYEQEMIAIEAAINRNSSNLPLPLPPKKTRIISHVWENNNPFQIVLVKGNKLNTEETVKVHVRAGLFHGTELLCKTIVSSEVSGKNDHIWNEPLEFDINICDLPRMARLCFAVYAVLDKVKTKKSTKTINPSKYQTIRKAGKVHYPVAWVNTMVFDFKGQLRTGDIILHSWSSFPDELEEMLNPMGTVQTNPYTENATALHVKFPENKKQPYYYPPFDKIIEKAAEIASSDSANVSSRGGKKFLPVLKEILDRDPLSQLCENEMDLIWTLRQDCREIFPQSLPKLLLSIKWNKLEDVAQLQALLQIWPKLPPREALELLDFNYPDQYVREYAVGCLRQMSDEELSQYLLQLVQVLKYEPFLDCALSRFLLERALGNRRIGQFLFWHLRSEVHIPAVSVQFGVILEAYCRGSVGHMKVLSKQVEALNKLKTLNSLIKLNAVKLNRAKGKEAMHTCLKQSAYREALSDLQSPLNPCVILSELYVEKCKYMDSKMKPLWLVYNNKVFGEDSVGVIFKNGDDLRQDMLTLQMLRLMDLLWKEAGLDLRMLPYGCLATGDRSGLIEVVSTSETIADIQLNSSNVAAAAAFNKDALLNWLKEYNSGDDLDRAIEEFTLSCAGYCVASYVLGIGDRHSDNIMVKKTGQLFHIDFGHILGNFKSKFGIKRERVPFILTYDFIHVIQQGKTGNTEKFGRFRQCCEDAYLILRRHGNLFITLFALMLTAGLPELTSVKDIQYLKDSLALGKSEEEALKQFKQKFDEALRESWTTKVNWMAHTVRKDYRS
T4 sequence (P27986 whole entry partner, species assumed): as the sequence (P27986 whole entry partner, species assumed) above
Summary of the method: as §1

PI3Kγ = target: T5, PI3Kγ (Mus musculus, UniProt Q9JHG7); assay: Acumen Assay - Raw264.7 p-AKT Assay (C5a stimulated); format: cell-based; conditions: Raw264.7 macrophage cells, compound 30 min, 10 nM C5a 5 min, p-AKT (Ser473) readout; read-out: PI3Kγ cell-C5a Raw264.7 IC50
T5 construct: endogenous in cells; host or cells: Raw264.7 macrophage cells
Experimental: Acumen® eX3 (A Mμltilaser Microplate Cytometer For Enhanced High Content Screening): TTP LabTech
3×10^4 Raw264.7 macrophage cells were seeded into 96-well plates with DMEM+10% heat-inactivated FBS at […], 90 ul/well, overnight. After starvation for 3 hr at 37° C. under 5% CO2, Raw264.7 cells were treated with 10 ul/well various concentrations of compound or 0.5% DMSO for 30 min, and then stimulated with 10 ul/well 10 nM C5a for 5 min.
1.) Cells were fixed 110 μL of 4% pre-warmed Paraformaldehyde (2% final), incubate for 45 min at room temperature.
2.) Remove paraformaldehyde solution. Add 100 μL of ice-cold 0.1% Triton X-100 in PBS and leave at 4° C. for 30 min.
3.) Wash once in 100 μL PBS.
4.) Incubate with 100 μL blocking buffer (1% BSA, in PBS) for 2 hours at room temperature.
5.) Wash once for 5 min with 100 ul PBS.
6.) Incubate with 40 μL 1:200 dilution of phospho AKT (Ser473) rabbit antibody in antibody dilution buffer (0.1% BSA, in PBS) overnight at 4° C.
7.) Wash for 3 times for 10 min with 100 ul PBS.
8.) Incubate for 90 min at room temperature with 50 μL of goat anti-rabbit Alex488 antibody at a 1:1,000 dilution in antibody dilution buffer (0.1% BSA, in PBS). Cover plate in foil to keep out of light.
9.) Wash for 3 times for 10 min with 100 μL PBS.
10.) Add 50 μL of 1.5 μM Propidium Iodide solution to each well to determine cell number at a 1:1,000 dilution in PBS (stock: 1.5 mM).
11.) Incubate at room temperature for 30 min.
12.) Seal the plate with a black cover-seal (supplied with plate).
13.) Load the plate into the Acumen Explorer and scan with the appropriate instrument settings.

T1 sequence (O00329 whole entry, species assumed): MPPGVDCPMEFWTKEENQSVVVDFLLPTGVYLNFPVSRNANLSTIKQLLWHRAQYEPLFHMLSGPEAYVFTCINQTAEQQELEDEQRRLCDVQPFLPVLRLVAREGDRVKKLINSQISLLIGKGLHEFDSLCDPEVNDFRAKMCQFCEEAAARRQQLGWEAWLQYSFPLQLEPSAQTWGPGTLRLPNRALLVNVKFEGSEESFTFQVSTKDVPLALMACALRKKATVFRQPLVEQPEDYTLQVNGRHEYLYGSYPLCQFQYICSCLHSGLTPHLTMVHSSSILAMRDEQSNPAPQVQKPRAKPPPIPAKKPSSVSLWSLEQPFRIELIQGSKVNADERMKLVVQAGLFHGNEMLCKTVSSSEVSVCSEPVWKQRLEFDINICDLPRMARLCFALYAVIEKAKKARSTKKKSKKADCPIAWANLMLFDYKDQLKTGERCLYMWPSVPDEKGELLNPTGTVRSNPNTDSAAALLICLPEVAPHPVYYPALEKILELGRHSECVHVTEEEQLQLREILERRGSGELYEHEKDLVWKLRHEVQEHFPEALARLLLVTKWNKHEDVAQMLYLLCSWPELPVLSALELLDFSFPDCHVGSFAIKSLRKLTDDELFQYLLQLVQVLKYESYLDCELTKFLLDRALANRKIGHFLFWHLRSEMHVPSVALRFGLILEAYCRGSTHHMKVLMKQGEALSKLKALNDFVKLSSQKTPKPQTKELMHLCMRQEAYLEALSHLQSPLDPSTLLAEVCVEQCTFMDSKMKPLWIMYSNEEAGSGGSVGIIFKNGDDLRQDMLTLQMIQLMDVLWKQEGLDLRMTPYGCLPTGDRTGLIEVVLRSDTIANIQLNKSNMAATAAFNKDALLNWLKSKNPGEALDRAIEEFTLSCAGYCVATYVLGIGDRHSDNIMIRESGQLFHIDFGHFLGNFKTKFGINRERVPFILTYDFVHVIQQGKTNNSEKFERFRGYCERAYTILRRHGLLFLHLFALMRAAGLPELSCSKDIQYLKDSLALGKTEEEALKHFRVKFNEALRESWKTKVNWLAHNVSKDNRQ
T1 sequence (P27986 whole entry partner, species assumed): as the sequence (P27986 whole entry partner, species assumed) above

Compound	PI3Kδ IH % @ 1 uM (p110δ/p85α) [%]	IC50 (p110δ/p85α) [nM]	PI3Kα IH % @ 1 uM (p110α/p85α) [%]	PI3Kγ IH % @ 1 uM (p110γ) [%]	PI3Kβ IH % @ 1 uM (p110β/p85α) [%]	IC50 (p110γ) [nM]	IC50 (PI3Kγ) [nM]	IC50 (p110β/p85α; read-out: PI3Kβ IC50) [nM]
N#Cc1c[nH]c2ncnc(N3CCC[C@H]3c3nn4cccc4c(=O)n3-c3ccccc3)c12 [Compound 1, (S)-4-(2-(4-oxo-3-phenyl-3,4-dihydropyrrolo[1,2-f][1,2,4]triazin-2-yl)pyrrolidin-1-yl)-7H-pyrrolo[2,3-d]pyrimidine-5-carbonitrile]	97.8	2	50.8	91.9	47.7			
Nc1nc(N2CCC[C@H]2c2nn3cccc3c(=O)n2-c2ccccc2)c2nc[nH]c2n1 [Compound 2]	98.2		5.1	98.8	38.0			
O=c1c2cccn2nc([C@@H]2CCCN2c2ncnc3[nH]cc(Cl)c23)n1-c1ccccc1 [Compound 3]	>100	15	12.0	82.5	17.8	365		
O=c1c2cccn2nc([C@@H]2CCCN2c2ncnc3[nH]cnc23)n1-c1ccccc1 [Compound 4]	94.1	10	2.6	92.4	17.4		3940	
N#Cc1c(N)ncnc1N1CCC[C@H]1c1nn2cccc2c(=O)n1-c1ccccc1 [Compound 5]	98.3		32.5	69.6	46.4			
N#Cc1c[nH]c2ncnc(N3CCC[C@H]3c3nn4cccc4c(=O)n3-c3cccc(Cl)c3)c12 [Compound 15]	100		24.6	72.0	5.4	312		
NC(=O)c1c[nH]c2ncnc(N3CCC[C@H]3c3nn4cccc4c(=O)n3-c3ccccc3)c12 [Compound 94, (S)-4-(2-(4-oxo-3-phenyl-3,4-dihydropyrrolo[1,2-f][1,2,4]triazin-2-yl)pyrrolidin-1-yl)-7H-pyrrolo[2,3-d]pyrimidine-5-carboxamide]	>100		36.3	>100	53.5	22		
C=Cc1c[nH]c2ncnc(N3CCC[C@H]3c3nn4cccc4c(=O)n3-c3ccccc3)c12 [Compound 98, (S)-3-phenyl-2-(1-(5-vinyl-7H-pyrrolo[2,3-d]pyrimidin-4-yl)pyrrolidin-2-yl)pyrrolo[1,2-f][1,2,4]triazin-4(3H)-one]	88.4		16.2	87.9	15.2	99		
N#Cc1c[nH]c2ncnc(N3CCC[C@H]3c3nn4ccc(C#N)c4c(=O)n3-c3ccccc3)c12 [Compound 113]	99.3	6	28.3	>100	74.9	43		244
